Source: article PMC10385824, “Antiproliferative and Tubulin-Destabilising Effects of 3-(Prop-1-en-2-yl)azetidin-2-Ones and Related Compounds in MCF-7 and MDA-MB-231 Breast Cancer Cells” (Pharmaceuticals, 2023)
Like-named read-outs stand apart in the source and are kept apart here.

Columns and labels:
[1] = HPLC stability study in plasma; assay type: in vitro ADME, human; conditions: human, buffered plasma (plasma:buffer 1:9); Plasma; study over 264 h
Procedure: Analytical high-performance liquid chromatography (HPLC) stability studies were performed as follows using Symmetry® column (C18, 5 µm, 4.6 × 150 mm), Waters 2487 Dual Wavelength Absorbance detector, Waters 1525 binary HPLC pump and Waters 717 plus Autosampler (Waters Corporation, Milford, MA, USA) with detection at 254 nm as previously described. Samples were analysed using mobile phase acetonitrile (80%): water (20%), flow rate (1 mL/min) over 10 min. […] First, 30 µL of compound stock solution was diluted with appropriate buffer (1 mL); sample was shaken and injected immediately. Samples were withdrawn and analysed at the following time points: t = 0 min, 5 min, 30 min, 60 min, 90 min, 120 min, 24 h and 48 h. (ii) Thermal stability: Compound stock solution (1 mL) was placed in a glass vial on a heating block for 4 h at 60 °C. The sample was then cooled, diluted (acetonitrile) and analysed. (ii) Oxidising conditions: H2O2 (3%, 0.2 mL) was added to compound stock solution (0.8 mL). The vial was vortexed and retained at 20 °C, and the sample was analysed at 60, 120 180 and 240 min. (iv) Acidic conditions: HCl (0.1 M, 0.2 mL) was added to stock solutions (0.8 mL). The vial was mixed by vortex and retained at 20 °C. A sample was neutralised with NaOH (0.1 M, 0.2 mL) at 60, 120, 180 and 240 min, followed by HPLC analysis. (v) Alkaline conditions: NaOH (0.1 M, 0.2 mL) was added to stock solution (0.8 mL) of the compound in a vial. The vial was mixed by vortex and retained at 20 °C. A sample was neutralised with HCl (0.1 M, 0.2 mL) at 60, 120, 180 and 240 min followed by HPLC analysis. (vi) Photostability study: Compounds (stock solution, 1 mL) were placed in a vial, exposed to UV light for 4 h and then analysed by HPLC as above. Stability studies in plasma: Approval for this study was obtained from the School of Pharmacy and Pharmaceutical Sciences Trinity College Dublin Research Ethics Committee (2020–06-01-MS). Following informed consent, blood was withdrawn from healthy volunteers, and plasma was obtained by centrifugation and kept at −20 °C until further use. […] A sample (250 µL) was then added to the Eppendorf tube containing ZnSO4.7H2O solution (500 µL) (2% w/v ZnSO4 solution in acetonitrile:water, 1:1). The samples were centrifuged (10,000 rpm, 3 min), filtered (0.2 micron filter) and analysed by HPLC as above. Further samples were taken at one-hour intervals.

MDA-MB-231/ATCC = test: NCI-60 SRB screen, breast cancer; assay type: cell-based, human; conditions: Homo sapiens; MDA-MB-231; obtained from NCI; five concentrations 0.01–100 μM; 48 h; read-out: Antiproliferative Activity IC50
[2] = system: NCI 60 human cancer cell line panel; test: NCI 60 cell line screen (SRB), panel values; conditions: for CC50: read-out: Mean LC50; for IC (TGI (total growth inhibition)): read-out: Mean TGI
[3] = system: MCF-7 human breast cancer cells; test: cells
[4] = system: purified bovine brain tubulin; test: Tubulin polymerization assay (light scattering, BK006 kit); assay type: biochemical; conditions: compound at 10 μM; for Vmax: 37 °C, 340 nm; for Fold Reduction in Vmax: relative to vehicle
Procedure: Tubulin polymerization was monitored using the BK006 kit obtained from Cytoskeleton Inc. (Denver, CO, USA). The values reported represent the average values determined from two independent assays. Purified bovine brain tubulin (>99%, 3 mg/mL) in buffer containing PIPES (80 mM, pH 6.9), EGTA (0.5 mM), MgCl2 (2 mM), GTP (1 mM) and glycerol (10%) was incubated at 37 °C in vehicle (1% DMSO or EtOH (v/v) in dH2O) or with compounds 9h, 9q, 9s, 10h, 10p, 10r, 11h, 11p, 11r, 17f (all at 10 µM concentration); CA-4 (10 μM) was used as control. In this assay, light scattering is related to the concentration of polymerised microtubules produced. Tubulin assembly was monitored turbidimetrically at 340 nm at 37 °C in a Spectramax 340 PC spectrophotometer (Molecular Devices, Sunnyvale, CA, USA).

[5] = HPLC stability study in phosphate buffers; assay type: physicochemical; conditions: for compound remaining: all pH values (4, 7.4, 9), after 11 days; for stability in words: over the pH range studied; for remaining at 264 h, 14.6 µg/mL: study over 264 h
[6] = HPLC stability under degradation conditions (acid, alkali, heat, light, oxidation); conditions: for remaining at 4 h / remaining at 312 h, 0.5 mg/mL / remaining at 5 h, 0.5 mg/mL: % Remaining; for remaining at 6 h: 30% H2O2 added to stock solution, Hydrogen peroxide (30 % H2O2, 0.2 mL), 20 °C; for remaining at 312 h, 0.5 mg/mL: solution in acetonitrile:water 80:20, daylight, Daylight (acetonitrile (80%):water (20%) 13 days); for remaining at 5 h, 0.5 mg/mL: stock solution in acetonitrile:water 80:20, heated, 80 °C (heating block, 5 h)
Procedure: Samples were analysed using mobile phase acetonitrile (80%): water (20%), flow rate (1 mL/min) over 10 min. […] First, 30 µL of compound stock solution was diluted with appropriate buffer (1 mL); sample was shaken and injected immediately. […] (ii) Thermal stability: Compound stock solution (1 mL) was placed in a glass vial on a heating block for 4 h at 60 °C. The sample was then cooled, diluted (acetonitrile) and analysed. (ii) Oxidising conditions: H2O2 (3%, 0.2 mL) was added to compound stock solution (0.8 mL).
a All samples were analysed using acetonitrile (80%):water (20%) as the mobile phase over
10 min and a flow rate of 1 mL/min.

[7] = system: MDA-MB-231 human breast cancer cells; test: Alamar Blue cell viability (antiproliferative) assay; assay type: cell-based; conditions: read-out: IC50
[8] = system: microtubule network in MCF-7 cells; test: Immunofluorescence confocal microscopy; assay type: cell-based, human; conditions: 16 h
Procedure: CA-4 and β-lactam 9q depolymerise the microtubule network in MCF-7 cells. […] After 16 h, the cells were fixed in 4% paraformaldehyde and stained with mouse monoclonal anti-α-tubulin−FITC antibody (clone DM1A) (green), Alexa Fluor 488 dye, and counterstained with DAPI (blue). The confocal images were obtained by Leica SP8 confocal microscopy with Leica application suite X software. Representative confocal micrograph images of three separate experiments are shown above [scale bar: […]].
The effects of β-lactam 9q on MCF-7 cytoskeleton were determined using confocal microscopy as previously described. MCF-7 cells were seeded at 1 × 10^5 cells/mL in glass slides with eight chambers (BD Biosciences, San Jose, CA, USA). […] Following treatment, cells were gently washed in PBS, fixed for 20 min with 4% paraformaldehyde in PBS and permeabilised in 0.5% Triton X-100. The cells were then washed with PBS-T (PBS containing 0.1% Tween), blocked in 5% bovine serum albumin diluted in PBS-T and incubated with mouse monoclonal anti-α-tubulin-FITC antibody (clone DM1A) (Sigma, Milwaulkee, WI, USA) (1:100) for 2 h at 20 °C. The cells were washed again with PBS-T and incubated with Alexa Fluor 488 dye (1:450) for 1 h at 20 °C. Following washes in PBST, the cells were mounted in Ultra Cruz Mounting Media (Santa Cruz Biotechnology, Santa Cruz, CA, USA), which contained 4,6-diamino-2-phenolindol dihydrochloride (DAPI). The immunofluorescence cell images were captured by Leica SP8 confocal microscopy and analysed with Leica application suite X software. Microscopy experiments were performed on three independent occasions, and the images for these experiments were obtained on the same day using identical conditions.

[9] = Homo sapiens, 60 cell, read-out: Mean GI50, mean over all NCI 60 cell lines
[10] = read-out: Mean GI50, mean over all NCI 60 cell lines
[11] = MCF7, read-out: Antiproliferative Activity IC50, MCF-7, eight concentrations 0.001–50 μM, mean ± SEM, Table 3
[12] = 1M HCl added to stock solution, 1M HCl (0.1 mL, 20 °C, 4h)
[13] = 1M HCl added to stock solution, 1M HCl (0.2 mL, 50 °C, 4h)
[14] = 1M NaOH added to stock solution, 1M NaOH (0.1 mL, 20 °C, 4h)
[15] = 1M NaOH added to stock solution, 1M NaOH (0.2 mL, 50 °C, 4h)

For C=CCC1C(=O)N(c2cc(OC)c(OC)c(OC)c2)C1c1ccc(OC)cc1 (stereo not drawn) [10h, 3-Allyl-4-(4-methoxyphenyl)-1-(3,4,5-trimethoxyphenyl)azetidin-2-one], the remaining at 264 h, 41.3 µg/mL [1] was 100%, the IC50 (MDA-MB-231/ATCC) was 120 nM and the GI50 [2, 9] was less than 91.2 nM. For the same molecule, the CC50 ([2]; Homo sapiens, 60 cell) was 81300 nM, the IC (TGI (total growth inhibition)) ([2]; Homo sapiens, 60 cell) was 17400 nM and the GI50 [2, 10] was 75.9 nM. For the same molecule, the IC50 [3, 11] was 35 ± 5 nM, the Vmax [4] was 0.0056 mOD/min and the “Fold Reduction in Vmax” value [4] was 2.5. For the same molecule, the compound remaining [5] was 24–41%, the stability in words [5] was “poor stability” and the remaining at 264 h, 14.6 µg/mL ([5]; phosphate buffer, pH 4.0) was 28%. It also gave a remaining at 264 h, 14.6 µg/mL ([5]; phosphate buffer, pH 7.4) of 41%, a remaining at 264 h, 14.6 µg/mL ([5]; phosphate buffer, pH 9.0) of 24% and a remaining at 4 h [6, 12] of 97.5%. It also gave a remaining at 4 h [6, 13] of 99.6%, a remaining at 4 h [6, 14] of 96% and a remaining at 6 h [6] of 100%. It also gave a remaining at 312 h, 0.5 mg/mL [6] of 100% and a remaining at 5 h, 0.5 mg/mL [6] of 100%.
Molecule C=CCC1C(=O)N(c2cc(OC)c(OC)c(OC)c2)C1c1ccc(OC)c([N+](=O)[O-])c1 (stereo not drawn) [10q, 3-Allyl-4-(4-methoxy-3-nitrophenyl)-1-(3,4,5-trimethoxyphenyl)azetidin-2-one] has a remaining at 264 h, 41.3 µg/mL [1] of 90%, an IC50 [3, 11] of 619 ± 70 nM and a melting point of 108 to 110 °C. The compound remaining [5] was 22–26%, the stability in words [5] was “poor stability” and the remaining at 264 h, 14.6 µg/mL ([5]; phosphate buffer, pH 4.0) was 26%. It also gave a remaining at 264 h, 14.6 µg/mL ([5]; phosphate buffer, pH 7.4) of 25%, a remaining at 264 h, 14.6 µg/mL ([5]; phosphate buffer, pH 9.0) of 22% and a remaining at 4 h [6, 12] of 99.2%. It also gave a remaining at 4 h [6, 13] of 98.7%, a remaining at 4 h [6, 14] of 97.8% and a remaining at 4 h [6, 15] of 97.8%. It also gave a remaining at 6 h [6] of 92%, a remaining at 312 h, 0.5 mg/mL [6] of 100% and a remaining at 5 h, 0.5 mg/mL [6] of 100%.
In the case of C=CCC1C(=O)N(c2cc(OC)c(OC)c(OC)c2)C1c1ccc(OC)c(N)c1 (stereo not drawn) [10r, 3-Allyl-4-(3-amino-4-methoxyphenyl)-1-(3,4,5-trimethoxyphenyl)azetidin-2-one], the remaining at 264 h, 41.3 µg/mL [1] is reported as 97%, the IC50 (MDA-MB-231/ATCC) is reported as 35.2 nM and the GI50 [2, 9] is reported as less than 91.2 nM. The CC50 ([2]; Homo sapiens, 60 cell) was 79400 nM, the IC (TGI (total growth inhibition)) ([2]; Homo sapiens, 60 cell) was 53700 nM and the GI50 [2, 10] was 85.1 nM. For the same molecule, the IC50 ([3]; MCF7, MCF-7) was 10 to 33 nM, the IC50 [3, 11] was 35 ± 4 nM and the Vmax [4] was 0.0029 mOD/min. For the same molecule, the “Fold Reduction in Vmax” value [4] was 3.4, the remaining at 264 h, 14.6 µg/mL ([5]; phosphate buffer, pH 4.0) was 96% and the remaining at 264 h, 14.6 µg/mL ([5]; phosphate buffer, pH 7.4) was 99%. The remaining at 264 h, 14.6 µg/mL ([5]; phosphate buffer, pH 9.0) was 83%, the half-life at 14.6 µg/mL ([5]; phosphate buffer, pH range studied, medium not specified, read-out: half-life (t½) (converted)) was greater than 24 h and the IC50 [7] was 35 nM. It also gave a remaining at 4 h [6, 12] of 91.8%, a remaining at 4 h [6, 13] of 92.2% and a remaining at 4 h [6, 15] of 83.1%. The remaining at 6 h [6] was 8%, the remaining at 312 h, 0.5 mg/mL [6] was 93% and the remaining at 5 h, 0.5 mg/mL [6] was 100%.
For CC(=O)O[C@H]1C(=O)[C@@]2(C)[C@H]([C@H](OC(=O)c3ccccc3)[C@]3(O)C[C@H](OC(=O)[C@H](O)[C@@H](NC(=O)c4ccccc4)c4ccccc4)C(C)=C1C3(C)C)[C@]1(OC(C)=O)CO[C@@H]1C[C@@H]2O [paclitaxel], the “effect on microtubule network” value [8] was “induced the formation of microtubule bundles and pseudo-asters”.
